Measured values from US20260008746A1, “CATIONIC LIPID COMPOUND WITH HIGH EFFICIENCY, LOW TOXICITY AND STABLE EXPRESSION, AND COMPOSITION COMPRISNG SAME” (HANGZHOU TIANLONG PHARMACEUTICAL CO., LTD, priority 2023, published 2026).

Key:
293T cells [1] = assay: Cell survival rate determination (CCK-8); assay type: cell-based; details: for Cell survival rate (%): LNP formulation containing 1.5 μg Fluc-mRNA, 24 hours, CCK-8, absorbance at 450 nm; for cell survival rate lower than that of YK-101: cell survival rate of YK-101 minus that of named substance; for cell survival rate lower than that of YK-107: cell survival rate of YK-107 minus that of named substance; for cell survival rate lower than that of YK-108: cell survival rate of YK-108 minus that of named substance
Method in brief: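 293T cells were seeded overnight at 10,000 cells/well in 96-well plates, then exposed for 24 h to LNP containing 1.5 μg Fluc-mRNA (cationic:neutral:structural:polymer-conjugated lipid, 49:10:39.5:1.5 molar) or to Lipofectamine 3000. Viability was read by CCK-8, 1 h incubation, absorbance 450 nm.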

[2] = Determination of particle size and polydispersity index (PDI) of lipid nanoparticles by dynamic light scattering; assay type: physicochemical; details: LNP formulation of named cationic lipid/DSPC/cholesterol/DMG-PEG2000 49:10:39.5:1.5; for Particle size (nm): 90° scattering angle, 25° C
Procedure: The cationic lipids listed in Table 1 were dissolved in ethanol with DSPC (AVT (Shanghai) Pharmaceutical Technology Co., Ltd.), cholesterol (AVT (Shanghai) Pharmaceutical Technology Co., Ltd.) and DMG-PEG2000 according to a molar ratio of 49:10:39.5:1.5, respectively, to prepare lipid solution in ethanol. The lipid solution in ethanol was quickly added to citrate buffer (pH=4 to 5) by ethanol injection method, and vortexed for 30 s for later use. eGFP-mRNA (from Shanghai Biohub International Trade Co., Ltd) or Fluc-mRNA (from Shanghai Biohub International Trade Co., Ltd) was diluted in citrate buffer (pH=4 to 5) to give an aqueous mRNA solution. A certain volume of liposome solution and mRNA aqueous solution were used to prepare liposomes at a weight ratio of total lipids to mRNA of 15:1. The mixtures were sonicated at 25° C. for 15 min (with an ultrasonic frequency of 40 kHz and an ultrasonic power of 800 W). The resulting liposomes were diluted to 10 times volume with PBS, and then ultrafiltered with a 300 KDa ultrafiltration tube to remove ethanol. Then the volume was fixed to a certain volume with PBS to give an LNP formulation encapsulating eGFP-mRNA or Fluc-mRNA using cationic lipid/DSPC/cholesterol/DMG-PEG2000 (49:10:39.5:1.5 in molar percentage).
The particle size and polydispersity index (PDI) were determined by dynamic light scattering using Malvern laser particle size analyzer.
10 μL of the liposome solution was weighed, diluted to 1 mL with RNase-free deionized water, and added to the sample pool. Each sample was measured in triplicate. The measurement conditions were: 90° scattering angle, and 25° C.

BALB/C mice = assay: In vivo imaging of Fluc-mRNA expression in mice delivered by LNP formulations; details: for average radiation intensity, 6 h / average radiation intensity, 24 h / average radiation intensity, 48 h / average radiation intensity, 7 d: LNP containing 10 pg Fluc-mRNA, intramuscular, female BALB/C mice
Procedure: The LNP formulation containing […] Fluc-mRNA was injected intramuscularly into female BALB/C mice aged 4-6 weeks old and weighed 17-19 g, and the mice were intraperitoneally injected with fluorescent imaging substrate at specific time points after administration (6h, 24 h, 48h and 7d), where the mice were allowed to move freely for 5 minutes, and then the average radiation intensity (corresponding to fluorescence expression intensity) of the protein expression of the mRNA carried by the LNP in the mice was detected by the IVIS Spectrum small animal in vivo imaging device. The test results are shown in Tables 11 to 14 and FIGS. 12 to 14.

293T cells [3] = assay: Fluorescent detection of Fluc-mRNA (cell transfection efficiency of LNP formulations); assay type: cell-based; details: for Relative light unit (RLU): LNP formulation containing 0.3 μg Fluc-mRNA, 96-well plate, 24 hours; for Multiples (YK-101): RLU of YK-101 / RLU of named substance; for Multiples (YK-107): RLU of YK-107 / RLU of named substance; for Multiples (YK-108): RLU of YK-108 / RLU of named substance; for Ratio relative to SM-102: RLU of named substance / RLU of SM-102
Method in brief: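 293T cells seeded at 10,000 per well, cultured overnight, then given LNP carrying 0.3 μg Fluc-mRNA (cationic:neutral:structured:PEG-lipid 49:10:39.5:1.5 molar). Incubated 24 h. Luciferase signal read with kit reagent on an IVIS imaging system.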

Structure (SMILES)	Cell survival rate (%) (293T cells [1])	cell survival rate lower than that of YK-101 (293T cells [1])	cell survival rate lower than that of YK-107 (293T cells [1])	cell survival rate lower than that of YK-108 (293T cells [1])	PDI(%) [2]	Particle size (nm) [2]	average radiation intensity, 6 h (BALB/C mice; 6 h)	average radiation intensity, 24 h (BALB/C mice; 24 h)	average radiation intensity, 48 h (BALB/C mice; 48 h)	average radiation intensity, 7 d (BALB/C mice; 7 d)	Relative light unit (RLU) (293T cells [3])	Multiples (YK-101) (293T cells [3])	Multiples (YK-107) (293T cells [3])	Multiples (YK-108) (293T cells [3])	Ratio relative to SM-102 (293T cells [3])	other results
CCCCCCCCCCCOC(=O)CCCCCN(CCO)CCCCCCCC(=O)OC(CCCCCCCC)CCCCCCCC [SM-102, reference compound]	68.17%	21.95%	22.28%	21.69%	17.4%	142 nm	689570	117750	31900	5834	1534210 RLU	13.25	14.58	16.07	1.00	average radiation intensity of YK-101, times that of named substance (BALB/C mice; 6 h): 2.2 times; average radiation intensity of YK-107, times that of named substance (BALB/C mice; 6 h): 2.3 times; average radiation intensity of YK-108, times that of named substance (BALB/C mice; 6 h): 2.9 times; average radiation intensity of YK-101, times that of named substance (BALB/C mice; 24 h): 9.0 times; average radiation intensity of YK-107, times that of named substance (BALB/C mice; 24 h): 11.1 times; average radiation intensity of YK-108, times that of named substance (BALB/C mice; 24 h): 11.9 times; average radiation intensity of YK-101, times that of named substance (BALB/C mice; 48 h): 5.8 times; average radiation intensity of YK-107, times that of named substance (BALB/C mice; 48 h): 7.1 times; average radiation intensity of YK-108, times that of named substance (BALB/C mice; 48 h): 7.2 times; average radiation intensity of YK-101, times that of named substance (BALB/C mice; 7 d): 2.1 times; average radiation intensity of YK-107, times that of named substance (BALB/C mice; 7 d): 2.3 times; average radiation intensity of YK-108, times that of named substance (BALB/C mice; 7 d): 2.4 times; expression amount of mRNA in mice of YK-108, times that of named substance (BALB/C mice; highest multiple, time point not stated): up to 11 times
CCCCCCCCCCOC(=O)CCCN(CCO)CCCCCC(=O)OCC(CCCCCCCC)CCCCCCCC [YK-009, reference compound]	73.57%	16.55%	16.88%	16.29%	12.1%	205 nm	1055200	770050	132100	10665	5075954 RLU	4.01	4.41	4.86	3.31	–
